Source: patent US11708564B2 (priority 2017, dated 2023)

Test system: active D-proline reductase
Experiment: Conversion of D-proline analog substrates by E. coli cells expressing active D-proline reductase (PrdA, PrdB, PrdH), TLC analysis
Format: biochemical, Peptoclostridium difficile 630
Details: substrate 10 mM, DTT 25 mM, 6 hours, E. coli BL21(DE3) cells OD 50 in 0.1 M phosphate buffer pH 8.0, TLC
Protocol: The obtained E. coli cells were adjusted to a final OD of 50, followed by centrifugation. After primary washing, E. coli cells were diluted with 1 mL of 0.1 M phosphate buffer (pH 8.0). Next, each 200 ul of the diluted samples was dispensed, and DTT (final concentration of 25 mM) and various substrates (final concentration of 10 mM, FIG. 11A) were added and allowed to react for 6 hours, followed by TLC analysis.
When cis-4-hydroxy-D-proline or trans-4-hydroxy-D-proline is subjected to the conversion reaction, 5-amino-4-hydroxypentanoic acid is produced.

Row | Compound | product formation on TLC after the conversion reaction | reaction rate of the conversion by D-proline reductase, compared with D-proline
1 | O=C(O)[C@H]1CCN1 [D-azetidine-2-carboxylic acid] | GABA production was clearly observed on TLC | relatively low reaction rate, as compared with D-proline
2 | O=C(O)[C@H]1C[C@@H](O)CN1 [cis-4-hydroxy-D-proline] | substrate reduction on TLC and newly formed TLC spot were observed | relatively low reaction rate, as compared with D-proline
3 | O=C(O)[C@H]1C[C@H](O)CN1 [trans-4-hydroxy-D-proline] | substrate reduction on TLC and newly formed TLC spot were observed | relatively low reaction rate, as compared with D-proline
